Columns and labels:
dog platelets = assay: Binding assay: inhibition of 3H-PAF binding to dog platelets; settings: 10 minutes at room temperature
Experimental: The binding assay was done in 400 μl polyethylene microcentrifuge tubes (Beckman) containing 50 μl of an oil mixture of 2 parts Siliconol AR200 (Serva): 1 part Silicone Fluid (Arthur H. Thomas). Buffer, standards, or analogs (150 μl total volume) were added to the tubes. Radiolabelled ^3 H-PAF (50 μl) was then added to the tubes. The reaction was started by the addition of 50 μl of dog platelets (2×10^7 platelets). The tubes were capped, inverted several times to mix, and incubated for 10 minutes at room temperature. The platelets were separated from the incubation mixture by centrifuging 1 minute in a Beckman Microfuge B centrifuge. The tip of the microfuge tube was cut off, and the platelets were washed out of the tip with 200 μl of 50% methanol (Burdick and Jackson). Aquasol (NEN, 10 ml) was added and the radioactivity in the samples was determined using an LS 8100 Beckman liquid scintillation counter linked to a Techtran tape recorder. Data was processed through an in-house computer system. Alternatively, radioactivity was determined using a Searle Mark III liquid scintillation counter linked to a Iso-Data microprocessor.
(b) Preparation of Platelets
Blood was collected from anesthesized or unanesthesized dogs into 50 ml plastic centrifuge tubes containing 3.8% sodium citrate as the anticoagulant (1 volume of citrate/9 volumes of blood). The red cells were removed by centrifugation for 15 minutes at 600 rpm (100-125 g) at room temperature. An aliquot of the supernatant platelet rich plasma (PRP) was saved for cell counting and the remainder was acidified by pH 6.5 with 0.15M citric acid. The platelet pellet was obtained after a 10 minute centrifugation at 2000 rpm (1000 g) at room temperature. Washed platelets were prepared by resuspending the platelet pellet once with PBS containing 1 mM EDTA, centrifuging as noted, and then resuspending the platelets in 0.1% BSA-PBS. An aliquot of the washed platelets was counted. Platelets used for binding assays were diluted to 2×10^7 platelets/assay tube (4×10^8 platelets/ml). Platelet counting was done using a Royco Cell-Crit 921.

[1] = tested on: PAF-induced Bronchoconstriction; assay: PAF Induced Bronchoconstriction Assay; format: in vivo; settings: guinea pig, ± standard error of the mean; for Percent Inhib. of PAF-induced Bronchoconstriction, 50 mg/Kg p.o.: 2-hour pretreatment, PAF i.v.; for Percent Inhib. of PAF-induced Bronchoconstriction, 1 mg/Kg i.v.: 1 minute pretreatment, PAF 1.0 μg/kg i.v.
Experimental: PAF Induced Bronchoconstriction Assay
Male animals (Hartlet Strain, 400-500 g) were anesthetized with urethane (2 g/kg, i.p.). Each animals' trachea was cannulated and the guinea pigs were respirated using a Harvard small animal rodent respirator (3.0 cc stroke volume, 40 breaths per min.). Tracheal pressure was recorded from a cannula inserted in the trachea and connected to a Statham Pressure Transducer.
The jugular vein was cannulated for administering compounds. Spontaneous breathing was arrested with succinylcholine (1.2 mg/kg, i.v.) administered 2 minutes prior to intravenous injection of platelet activating factor (PAF).
For, the intravenous testing, the guinea pig is given a 5-minute pretreatment with propranolol at a dose of 0.1 mg/kg intravenously. The test compound is administered with a 1 minute pretreatment prior to intravenous challenge with PAF. The animal is then challenged with a 1.0 μg/kg intravenous dose of PAF and the change is tracheal pressure is measured.
For the oral testing, the procedure includes a 2-hour pretreatment period with the test compound administered through an oral gavage tube. Propranolol or succinylcholine and PAF are administered intravenously, and the change in tracheal pressure measured.
The change is tracheal pressure is determined by subtracting the steady state baseline achieved after administration of succinylcholine from the peak bronchoconstriction seen after challenge with PAF. The mean is calculated for each test compound and compared to the mean of the control animals to give the percent inhibition of bronchoconstriction. The standard error is calculated as the standard error of the mean.

Row | Structure (SMILES) | IC50 (dog platelets) [µM] | Percent Inhib. of PAF-induced Bronchoconstriction, 50 mg/Kg p.o. [1] [%] | Percent Inhib. of PAF-induced Bronchoconstriction, 1 mg/Kg i.v. [1] [%]
1 | O=C(CCC1CC1(c1ccccc1)c1ccccc1)NCCCCc1cccnc1 (racemic) [(R,S)-2,2-Diphenyl-N-[4-(3-pyridinyl)butyl]cyclopropanepropanamide] | 0.3 | – | –
2 | COc1cccc(C2(c3cccc(OC)c3)CC2/C=C/C(=O)NC(C)CCCc2cccnc2)c1 (stereo in doubt) [(S,R*)-(E)-3-[2,2-bis(3-Methoxyphenyl)cyclopropyl]-N-[1-methyl-4-(3-pyridinyl)butyl]-2-propenamide] | 0.45 | – | –
3 | O=C(/C=C\C1CC1(c1ccccc1)c1ccccc1)NCCCCc1cccnc1 (racemic) [[R,S-(Z)]-3-(2,2-Diphenylcyclopropyl)-N-[4-(3-pyridinyl)butyl]-2-propenamide] | 0.65 | – | –
4 | O=C(/C=C/[C@H]1CC1(c1ccccc1)c1ccccc1)NCCCCc1cccnc1 [[R-(E)]-3-(2,2-Diphenylcyclopropyl)-N-[4-(3-pyridinyl)butyl]-2-propenamide] | 0.25 | 57 ± 19 | 71 ± 12
5 | O=C(/C=C\[C@@H]1CC1(c1ccccc1)c1ccccc1)NCCCCc1cccnc1 [[S-(Z)]-3-(2,2-Diphenylcyclopropyl)-N-[4-(3-pyridinyl)butyl]-2-propenamide] | 1 | – | –
6 | O=C(/C=C/C1CC1(c1cccc(C(F)(F)F)c1)c1cccc(C(F)(F)F)c1)NCCCCc1cccnc1 (racemic) [[R,S-(E)]-3-[2,2-bis[3-(trifluoromethyl)phenyl]cyclopropyl]-N-[4-(3-pyridinyl)butyl]-2-propenamide] | 0.35 | – | –
7 | O=C(/C=C\C1CC1(c1ccc(F)cc1)c1ccc(F)cc1)NCCCCc1cccnc1 (racemic) [[R,S-(Z)]-3-[2,2-bis(4-Fluorophenyl)cyclopropyl]-N-[4-[3-pyridinyl)butyl]-2-propenamide] | 1 | 78 ± 11 | –
8 | COc1cccc([C@]2(c3ccccc3)C[C@@H]2/C=C\C(=O)NCCCCc2cccnc2)c1 (relative stereo) [[1(R,S),2(R,S)-(Z)]-3-[[2-(3-Methoxyphenyl)-2-phenyl]cyclopropyl]-N-[4-(3-pyridinyl)butyl]-2-propenamide] | 0.3 | 9 ± 14 | –
9 | O=C(CC[C@@H]1CC1(c1ccccc1)c1ccccc1)NCCCCc1cccnc1 [(R)-2,2-Diphenyl-N-[4-(3-pyridinyl)butyl]cyclopropanepropanamide] | 0.6 | – | –
10 | CC1(/C=C/C(=O)NCCCCc2cccnc2)CC1(c1ccc(F)cc1)c1ccc(F)cc1 (racemic) [[R,S-(E)]-3-[2,2-bis(4-Fluorophenyl)-1-methylcyclopropyl]-N-[4-(3-pyridinyl)butyl]-2-propenamide] | 0.3 | – | –
11 | C[C@H](CCCc1cccnc1)NC(=O)/C=C/[C@@H]1CC1(c1ccc(F)cc1)c1ccc(F)cc1 (relative stereo) [[S,R*-(E)]-3-[2,2-bis(4-Fluorophenyl)cyclopropyl]-N-[1-methyl-4-(3-pyridinyl)butyl]-2-propenamide] | 0.45 | – | –
12 | C[C@]1(/C=C/C(=O)NCCCCc2cccnc2)CC1(c1ccc(F)cc1)c1ccc(F)cc1 [[R-(E)]-3-[2,2-bis(4-fluorophenyl)-1-methylcyclopropyl]-N-[4-(3-pyridinyl)butyl]-2-propenamide] | 0.5 | – | –

The remaining compounds from weak to strong by IC50 (dog platelets), led by results:

Row | IC50 (dog platelets) [µM] | Structure (SMILES) | Percent Inhib. of PAF-induced Bronchoconstriction, 50 mg/Kg p.o. [1] [%] | Percent Inhib. of PAF-induced Bronchoconstriction, 1 mg/Kg i.v. [1] [%]
13 | 0.25 | COc1cccc([C@@]2(c3ccccc3)C[C@@H]2/C=C\C(=O)NCCCCc2cccnc2)c1 (relative stereo) [[1(R,S),2(S,R)-(Z)]-3-[[2-(3-Methoxyphenyl)-2-phenyl]cyclopropyl]-N-[4-(3-pyridinyl)butyl]-2-propenamide] | 15 ± 12 | –
14 | 0.2 | O=C(/C=C/[C@H]1CC1(c1ccc(F)cc1)c1ccc(F)cc1)NCCCCc1cccnc1 [[R-(E)]-3-[2,2-bis(4-Fluorophenyl)cyclopropyl]-N-[4-(3-pyridinyl)butyl]-2-propenamide] | 83 ± 31 | 13 ± 11
15 | 0.2 | C[C@@]1(/C=C/C(=O)NCCCCc2cccnc2)CC1(c1ccc(F)cc1)c1ccc(F)cc1 [[S-(E)]-3-[2,2-bis(4-Fluorophenyl)-1-methylcyclopropyl]-N-[4-(3-pyridinyl)butyl]-2-propenamide] | – | –
16 | 0.2 | O=C(CC[C@H]1CC1(c1ccccc1)c1ccccc1)NCCCCc1cccnc1 [(S)-2,2-Diphenyl-N-[4-(3-pyridinyl)butyl]cyclopropanepropanamide] | – | –
17 | 0.2 | O=C(/C=C/[C@H]1CC1(c1cccc(F)c1)c1cccc(F)c1)NCCCCc1cccnc1 [[R-(E)]-3-[2,2-bis(3-Fluorophenyl)cyclopropyl]-N-[4-(3-pyridinyl)butyl]-2-propenamide] | 10 ± 13 | 29 ± 3
18 | 0.15 | O=C(/C=C/C1CC1(c1ccccc1)c1ccccc1)NCCCCc1cccnc1 (racemic) [[R,S-(E)]-3-(2,2-Diphenylcyclopropyl)-N-[4-(3-pyridinyl)butyl]-2-propenamide] | – | 48 ± 16
19 | 0.13 | C[C@H](CCCc1cccnc1)NC(=O)/C=C/[C@@H]1CC1(c1cccc(F)c1)c1cccc(F)c1 (relative stereo) [[S,R*-(E)]-3-[2,2-bis(3-Fluorophenyl)cyclopropyl]-N-[1-methyl-4-(3-pyridinyl)butyl]-2-propenamide] | – | –
20 | 0.1 | O=C(/C=C/C1CC1(c1ccc(F)cc1)c1ccc(F)cc1)NCCCCc1cccnc1 (racemic) [[R,S-(E)]-3-[2,2-bis(4-Fluorophenyl)cyclopropyl]-N-[4-(3-pyridinyl)butyl]-2-propenamide] | 82 ± 5 | 20 ± 8
21 | 0.1 | O=C(/C=C\[C@H]1CC1(c1ccccc1)c1ccccc1)NCCCCc1cccnc1 [[R-(Z)]-3-(2,2-Diphenylcyclopropyl)-N-[4-(3-pyridinyl)butyl]-2-propenamide] | – | –
22 | 0.07 | COc1cccc(C2(c3cccc(OC)c3)CC2/C=C/C(=O)NCCCCc2cccnc2)c1 (racemic) [[R,S-(E)]-3-[2,2-bis(3-Methoxyphenyl)cyclopropyl]-N-[4-(3-pyridinyl)butyl]-2-propenamide] | 14 ± 1 | –
23 | 0.055 | S=C(/C=C/C1CC1(c1ccccc1)c1ccccc1)NCCCCc1cccnc1 (racemic) [(R,S)-(E)-3-(Diphenylcyclopropyl)-N-[4-(3-pyridinyl)butyl]-2-propenethioamide] | – | –
24 | 0.036 | COc1cccc(C2(c3cccc(OC)c3)C[C@H]2/C=C/C(=O)NCCCCc2cccnc2)c1 [[S-(E)]-3-[2,2-bis(3-Methoxyphenyl)cyclopropyl]-N-[4-(3-pyridinyl)butyl]-2-propenamide] | – | 25 ± 8
25 | 0.035 | COc1cccc([C@@]2(c3ccccc3)C[C@@H]2/C=C/C(=O)NCCCCc2cccnc2)c1 (relative stereo) [[1(R,S),2(S,R)-(E)]-3-[[2-(3-Methoxyphenyl)-2-phenyl]cyclopropyl]-N-[4-(3-pyridinyl)butyl]-2-propenamide] | – | –
26 | 0.025 | O=C(/C=C/[C@@H]1CC1(c1ccc(F)cc1)c1ccc(F)cc1)NCCCCc1cccnc1 [[S-(E)]-3-[2,2-bis(4-Fluorophenyl)cyclopropyl]-N-[4-(3-pyridinyl)butyl]-2-propenamide] | 62 ± 13 | 33 ± 7
27 | 0.008 | COc1cccc([C@]2(c3ccccc3)C[C@@H]2/C=C/C(=O)NCCCCc2cccnc2)c1 (relative stereo) [[1(R,S),2(R,S)-(E)]-3-[[2-(3-Methoxyphenyl)-2-phenyl]cyclopropyl]-N-[4-(3-pyridinyl)butyl]-2-propenamide] | – | –

— patent publication US4927826A, “Cycloproylpropenamides useful as platelet activing factor (PAF) antagonists” (Hoffman-La Roche Inc., priority 1988, dated 1990)
